Molecular target: recombinant human HPK1 (Homo sapiens (Human), UniProt Q92918)
Experiment: HPK1 kinase assay (ADP-Glo)
Type: biochemical
Conditions: 25 μM ATP, MBP substrate
Procedure, shortened: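 Activity was read as ADP formed, detected by ADP-Glo luminescence after the reaction of 5 ng recombinant human HPK1 with MBP and ATP (stocks 0.5 μg/μl and 25 μM) for 40 min at 30 °C. Buffer was Tris pH 7.5 with MgCl2, BSA and DTT, with compound in 0.5% DMSO. IC50 came from inhibition curves.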

Sequence of recombinant human HPK1 (Q92918 whole entry): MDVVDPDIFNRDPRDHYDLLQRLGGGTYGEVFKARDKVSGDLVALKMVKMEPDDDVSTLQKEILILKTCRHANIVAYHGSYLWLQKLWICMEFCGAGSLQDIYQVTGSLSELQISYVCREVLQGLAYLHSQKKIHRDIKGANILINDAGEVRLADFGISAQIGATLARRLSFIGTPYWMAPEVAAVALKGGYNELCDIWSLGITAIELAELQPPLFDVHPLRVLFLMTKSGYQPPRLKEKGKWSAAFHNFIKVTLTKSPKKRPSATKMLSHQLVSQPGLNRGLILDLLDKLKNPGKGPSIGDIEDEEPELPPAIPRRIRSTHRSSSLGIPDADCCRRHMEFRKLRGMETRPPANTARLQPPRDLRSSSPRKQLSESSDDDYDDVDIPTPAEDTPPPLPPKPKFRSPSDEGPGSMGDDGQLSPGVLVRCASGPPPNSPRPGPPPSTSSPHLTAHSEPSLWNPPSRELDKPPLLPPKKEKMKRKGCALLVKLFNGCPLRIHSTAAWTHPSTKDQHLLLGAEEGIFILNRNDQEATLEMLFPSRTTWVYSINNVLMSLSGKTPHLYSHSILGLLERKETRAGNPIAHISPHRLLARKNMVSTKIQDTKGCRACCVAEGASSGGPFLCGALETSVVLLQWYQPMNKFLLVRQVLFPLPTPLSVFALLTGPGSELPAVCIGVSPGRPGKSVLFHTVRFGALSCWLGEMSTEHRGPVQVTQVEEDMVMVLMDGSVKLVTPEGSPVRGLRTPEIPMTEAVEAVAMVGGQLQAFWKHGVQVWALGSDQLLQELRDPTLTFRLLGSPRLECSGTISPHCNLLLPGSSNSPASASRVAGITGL

| IC50 [nM] | SMILES |
| --- | --- |
| < 100 | CC(=O)N(CC#N)c1c(F)c(Cl)c(-c2ccn3nc(NC(=O)[C@@H]4C[C@@H]4F)cc3c2)c2cn[nH]c12 [Example 615, (1S,2S)-N-(5-(5-chloro-7-(N-(cyanomethyl)acetamido)-6-fluoro-1H-indazol-4-yl)pyrazolo[1,5-a]pyridin-2-yl)-2-fluorocyclopropane-1-carboxamide] |
| < 100 | CCc1c(F)c(SC)c2[nH]ncc2c1-c1ccc2nc(NC(=O)[C@@H]3C[C@@H]3F)sc2c1 [Example 103, (1S,2S)-N-(6-(5-ethyl-6-fluoro-7-(methylthio)-1H-indazol-4-yl)benzo[d]thiazol-2-yl)-2-fluorocyclopropane-1-carboxamide] |
| > 1000 | O=C(Nc1cn2cc(-c3c(C4CC4)c(F)cc4[nH]ncc34)ccc2n1)C1CC1 [Example 241, N-(6-(5-cyclopropyl-6-fluoro-1H-indazol-4-yl)imidazo[1,2-a]pyridin-2-yl)cyclopropanecarboxamide] |
| < 100 | COC(=O)c1c(F)c(C)c(-c2ccc3nc(NC(=O)[C@@H]4C[C@@H]4F)cn3c2)c2cn[nH]c12 [Example 305, methyl 6-fluoro-4-(2-((1S,2S)-2-fluorocyclopropane-1-carboxamido)imidazo[1,2-a]pyridin-6-yl)-5-methyl-1H-indazole-7-carboxylate] |
| < 100 | CCOc1cc(C)c(-c2ccc3nc(NC(=O)[C@@H]4C[C@@H]4F)cn3c2)c2cn[nH]c12 [Example 287, (1S,2S)-N-(6-(7-ethoxy-5-methyl-1H-indazol-4-yl)imidazo[1,2-a]pyridin-2-yl)-2-fluorocyclopropane-1-carboxamide] |
| < 100 | O=C(Nc1cc2cc(-c3c(Cl)c(F)c(N4CCCC4)c4[nH]ncc34)ccn2n1)[C@@H]1C[C@@H]1F [Example 499, (1S,2S)-N-(5-(5-chloro-6-fluoro-7-(pyrrolidin-1-yl)-1H-indazol-4-yl)pyrazolo[1,5-a]pyridin-2-yl)-2-fluorocyclopropane-1-carboxamide] |
| > 1000 | Cc1c(F)c(Cl)c2[nH]nc(Cl)c2c1-c1cc(Cl)c2nc(NC(=O)[C@@H]3C[C@@H]3F)sc2c1 [Example 54, (1S,2S)-N-(4-chloro-6-(3,7-dichloro-6-fluoro-5-methyl-1H-indazol-4-yl)benzo[d]thiazol-2-yl)-2-fluorocyclopropane-1-carboxamide] |
| > 1000 | Cc1ccc2[nH]ncc2c1-c1ccc2nc(NC(=O)c3ccccc3)sc2c1 [Example 8, N-(6-(5-methyl-1H-indazol-4-yl)benzo[d]thiazol-2-yl)benzamide] |
| < 100 | CCc1c(F)c(C(F)(F)F)c2[nH]ncc2c1-c1ccc2nc(NC(=O)[C@@H]3C[C@@H]3F)cn2c1 [Example 339, (1S,2S)-N-(6-(5-ethyl-6-fluoro-7-(trifluoromethyl)-1H-indazol-4-yl)imidazo[1,2-a]pyridin-2-yl)-2-fluorocyclopropane-1-carboxamide] |
| < 100 | CNC(=O)OCCSc1c(F)c(C)c(-c2ccc3nc(NC(=O)[C@@H]4C[C@@H]4F)cn3c2)c2cn[nH]c12 [Example 312, 2-((6-fluoro-4-(2-((1S,2S)-2-fluorocyclopropane-1-carboxamido)imidazo[1,2-a]pyridin-6-yl)-5-methyl-1H-indazol-7-yl)thio)ethyl methylcarbamate] |
| 101 to 500 | O=C(Nc1cc2cc(-c3c(C4CC4)ccc4[nH]ncc34)ccn2n1)[C@@H]1C[C@@H]1F [Example 459, (1S,2S)-N-(5-(5-cyclopropyl-1H-indazol-4-yl)pyrazolo[1,5-a]pyridin-2-yl)-2-fluorocyclopropane-1-carboxamide] |
| < 100 | O=C(Nc1cn2cc(-c3c(Br)ccc4[nH]ncc34)ccc2n1)[C@@H]1C[C@@H]1F [Example 238, (1S,2S)-N-(6-(5-bromo-1H-indazol-4-yl)imidazo[1,2-a]pyridin-2-yl)-2-fluorocyclopropane-1-carboxamide] |
| 101 to 500 | CC(=O)c1c(F)c(C)c(-c2ccn3nc(NC(=O)[C@@H]4C[C@@H]4F)cc3c2)c2cn[nH]c12 [Example 566, (1S,2S)-N-(5-(7-acetyl-6-fluoro-5-methyl-1H-indazol-4-yl)pyrazolo[1,5-a]pyridin-2-yl)-2-fluorocyclopropane-1-carboxamide] |
| 501 to 1000 | O=C(Nc1nc2ccc(-c3c(CO)ccc4[nH]ncc34)cc2s1)C1CC1 [Example 25, N-(6-(5-(hydroxymethyl)-1H-indazol-4-yl)benzo[d]thiazol-2-yl)cyclopropanecarboxamide] |
| < 100 | COC(=O)c1c(F)c(C)c(-c2ccc3nc(NC(=O)[C@@H]4C[C@@H]4F)sc3c2)c2cn[nH]c12 [Example 116, methyl 6-fluoro-4-(2-((1S,2S)-2-fluorocyclopropane-1-carboxamido)benzo[d]thiazol-6-yl)-5-methyl-1H-indazole-7-carboxylate] |
| 101 to 500 | C=Cc1c(F)c(C)c(-c2ccc3nc(NC(=O)[C@@H]4C[C@@H]4F)sc3c2)c2cn[nH]c12 [Example 62, (1S,2S)-2-fluoro-N-(6-(6-fluoro-5-methyl-7-vinyl-1H-indazol-4-yl)benzo[d]thiazol-2-yl)cyclopropane-1-carboxamide] |

| IC50 [nM] | SMILES |
| --- | --- |
| < 100 | O=C(Nc1cc2cc(-c3c(Cl)c(F)c(CF)c4[nH]ncc34)ccn2n1)[C@@H]1C[C@@H]1F [Example 634, (1S,2S)-N-(5-(5-chloro-6-fluoro-7-(fluoromethyl)-1H-indazol-4-yl)pyrazolo[1,5-a]pyridin-2-yl)-2-fluorocyclopropane-1-carboxamide] |
| < 100 | CC(C)c1c(F)c(Cl)c(-c2ccn3nc(NC(=O)[C@@H]4C[C@@H]4F)cc3c2)c2cn[nH]c12 [Example 640, (1S,2S)-N-(5-(5-chloro-6-fluoro-7-isopropyl-1H-indazol-4-yl)pyrazolo[1,5-a]pyridin-2-yl)-2-fluorocyclopropane-1-carboxamide] |
| < 100 | O=C(Nc1cc2cc(-c3c(Cl)c(F)c(F)c4[nH]ncc34)ccn2n1)[C@@H]1C[C@@H]1F [Example 536, (1S,2S)-N-(5-(5-chloro-6,7-difluoro-1H-indazol-4-yl)pyrazolo[1,5-a]pyridin-2-yl)-2-fluorocyclopropane-1-carboxamide] |
| 101 to 500 | O=C(Nc1cn2cc(-c3c(Cl)c(F)c(CN4CCCCC4)c4[nH]ncc34)ccc2n1)[C@@H]1C[C@@H]1F [Example 382, (1S,2S)-N-(6-(5-chloro-6-fluoro-7-(piperidin-1-ylmethyl)-1H-indazol-4-yl)imidazo[1,2-a]pyridin-2-yl)-2-fluorocyclopropane-1-carboxamide] |
| < 100 | O=C(Nc1nc2ccc(-c3c(Cl)c(F)c(SCCCO)c4[nH]ncc34)cc2s1)[C@@H]1C[C@@H]1F [Example 86, (1S,2S)-N-(6-(5-chloro-6-fluoro-7-((3-hydroxypropyl)thio)-1H-indazol-4-yl)benzo[d]thiazol-2-yl)-2-fluorocyclopropanecarboxamide] |
| < 100 | Cc1c(F)cc2[nH]ncc2c1-c1ccc2nc(NC(=O)[C@@H]3C[C@@H]3F)sc2c1CCc1ccncc1 [Example 65, (1S,2S)-2-fluoro-N-(6-(6-fluoro-5-methyl-1H-indazol-4-yl)-7-(2-(pyridin-4-yl)ethyl)benzo[d]thiazol-2-yl)cyclopropane-1-carboxamide] |
| < 100 | CCc1c(F)c(SCC(=O)N(C)C)c2[nH]ncc2c1-c1ccn2nc(NC(=O)[C@@H]3C[C@@H]3F)cc2c1 [Example 522] |
| < 100 | O=C(Nc1cn2cc(-c3c(Cl)c(F)c(O)c4[nH]ncc34)ccc2n1)[C@@H]1C[C@@H]1F [Example 295, (1S,2S)-N-(6-(5-chloro-6-fluoro-7-hydroxy-1H-indazol-4-yl)imidazo[1,2-a]pyridin-2-yl)-2-fluorocyclopropane-1-carboxamide] |
| < 100 | CCc1c(F)c(N(C)CC)c2[nH]ncc2c1-c1ccc2nc(NC(=O)[C@@H]3C[C@@H]3F)sc2c1 [Example 136, (1S,2S)-N-(6-(5-ethyl-7-(ethyl(methyl)amino)-6-fluoro-1H-indazol-4-yl)benzo[d]thiazol-2-yl)-2-fluorocyclopropane-1-carboxamide] |
| < 100 | CC(NC1COC1)c1c(F)c(Cl)c(-c2ccc3nc(NC(=O)[C@@H]4C[C@@H]4F)cn3c2)c2cn[nH]c12 (stereo partly drawn) [Example 427, (1S,2S)-N-(6-(5-chloro-6-fluoro-7-(1-(oxetan-3-ylamino)ethyl)-1H-indazol-4-yl)imidazo[1,2-a]pyridin-2-yl)-2-fluorocyclopropane-1-carboxamide] |
| 101 to 500 | O=C(Nc1nc2ccc(-c3c(C(F)(F)F)ccc4[nH]ncc34)cc2s1)C1CC1 [Example 17, N-(6-(5-(trifluoromethyl)-1H-indazol-4-yl)benzo[d]thiazol-2-yl)cyclopropanecarboxamide] |
| < 100 | CN(Cc1ccncc1)c1c(F)c(Cl)c(-c2ccc3nc(NC(=O)[C@@H]4C[C@@H]4F)cn3c2)c2cn[nH]c12 [Example 353, (1S,2S)-N-(6-(5-chloro-6-fluoro-7-(methyl(pyridin-4-ylmethyl)amino)-1H-indazol-4-yl)imidazo[1,2-a]pyridin-2-yl)-2-fluorocyclopropane-1-carboxamide] |
| < 100 | CN(c1ccncc1)c1c(F)c(Cl)c(-c2ccn3nc(NC(=O)[C@@H]4C[C@@H]4F)cc3c2)c2cn[nH]c12 [Example 614, (1S,2S)-N-(5-(5-chloro-6-fluoro-7-(methyl(pyridin-4-yl)amino)-1H-indazol-4-yl)pyrazolo[1,5-a]pyridin-2-yl)-2-fluorocyclopropane-1-carboxamide] |
| < 100 | COC(=O)c1c(F)c(Cl)c(-c2ccc3nc(NC(=O)[C@@H]4C[C@@H]4F)cn3c2)c2cn[nH]c12 [Example 315, methyl 5-chloro-6-fluoro-4-(2-((1S,2S)-2-fluorocyclopropane-1-carboxamido)imidazo[1,2-a]pyridin-6-yl)-1H-indazole-7-carboxylate] |
| 101 to 500 | O=C(Nc1cn2cc(-c3c(C4CC4)ccc4[nH]ncc34)ccc2n1)C1CC1 [Example 244, N-(6-(5-cyclopropyl-1H-indazol-4-yl)imidazo[1,2-a]pyridin-2-yl)cyclopropanecarboxamide] |
